This note sets out measurements from US8367332B2, “Detection and quantification of abasic site formation in vivo” (Case Western Reserve University, priority 2008, dated 2013).

The test system of series [1] is AP sites. The experiment in a line: In vivo blocking experiment with unlabelled MX (microPET, glioma tumors). More on the design: species or system mice. As to conditions: TMZ 80 mg/kg; unlabelled MX 2-10 mg/kg 30 min before [^11C]MX 2 mCi/kg; p value=0.003. On the procedure:
FIG. 4 illustrates; (A) plots of time-radioactivity courses of [^11C]MX in the glioma tumors before and after blocking by unlabelled MX; and (B) a graph showing average SUV between 0-60 min (n=4, where n is the number of tumors imaged and analyzed). Decrease of radioactivity concentration indicates in vivo blocking of AP binding sites by unlabeled MX (p value=0.003).
Thus, we conducted in vivo blocking experiment in tumor mice with unlabelled MX as a further test of whether the difference in radioactivity concentrations between TMZ-treated and untreated tumors is due to specific binding of [^11C]MX to AP sites. For this purpose, 4 tumor-bearing mice were treated with TMZ (80 mg/kg) for 10 min. Following the treatment, two mice were injected with unlabelled MX (2-10 mg/kg) and two were injected with vehicle control. Thirty minutes later, 2 mCi/kg of [^11C]MX was administered to each mouse and microPET imaging was performed. In each case, a vehicle-treated and an unlabeled MX-treated mouse were imaged side-by-side. Dynamic acquisition was carried out for 60 min in list mode.

Series [2] deals with AP sites. The experiment in a line: ARP assay of AP sites in A375 melanoma cells. It counts as cell-based. To be noted: 12.5 mM co-treatment with TMZ, 24 hr. How it is done: FIG. 5 illustrates a graph showing AP sites increased in melanoma cells (A375) after treatment with TMZ in a dose-dependent manner. Using ARP assay, formation of AP sites in A375 melanoma cells were measured. Cells were treated with TMZ (0-1500 μM) alone or TMZ plus MX (12.5 mM) for 24 hr for a dose-dependent assay (black), or treated with TMZ and MX (12.5 mM) for 24 hr, or treated with TMZ and F422 (12.5 mM) for 24 hours.

In series [3] the test system is AP sites. The experiment in a line: microPET of [^11C]MX in flank glioma (U87) xenografts, TMZ-treated vs non-treated. The format is in vivo, mice. As to conditions: flank glioma xenograft; TMZ 80 mg/kg; 60 min scan. How it is done:
(§1) Melanoma and glioma xenografts were prepared according to previously published procedures. Briefly, glioma (U87) and melanoma (WM164) tumor cells (5×10^6) were injected into the bilateral flanks of female athymic NRC nude mice (6-8 weeks of age). When the volume of tumor nodules reached 150-200 mm^3, mice are randomly assigned to control or treatment groups (4 mice/group).
Following MRI studies, the mice were transferred to a Concord R4 microPET scanner under anesthesia. The same holder was used for microPET studies so that the tumor positions of the mice remain unchanged in order to facilitate image coregistration with MRI. […] Body temperature in the anesthetized animals was monitored using a rectal temperature probe and maintained at 37+/−2° C. with a heating lamp or a heating pad.
Following MRI and microPET studies, we conducted quantitative image analysis in order to evaluate the in vivo pharmacokinetic profiles of [^11C]MX in tumor tissues. […] The co-registered images were used for quantitative image analysis to determine [^11C]MX uptake and retention associated with tumor tissues. The radioactivity concentration in the tumor regions is expressed in terms of standard uptake volume (SUV) [(μCi/cc)/(uCi/g)] as a function of time.
Malignant glioma is another type of cancer that can be effectively treated with TMZ because TMZ can readily penetrate the blood-brain barrier. […]

Series [4] deals with AP sites. The experiment in a line: microPET of [^11C]MX in melanoma (WM164) xenografts, TMZ-treated vs non-treated. The format is in vivo, mice. As to conditions: melanoma xenograft. On the procedure: as §1
Following MRI studies, the mice were transferred to a Concord R4 microPET scanner under anesthesia. The same holder was used for microPET studies so that the tumor positions of the mice remain unchanged in order to facilitate image coregistration with MRI. Subsequently, dynamic microPET scans were performed over 60 min in a list mode, immediately after a bolus injection of ca. 500 μCi of [^11C]MX via the tail vein. Body temperature in the anesthetized animals was monitored using a rectal temperature probe and maintained at 37+/−2° C. with a heating lamp or a heating pad.
Following MRI and microPET studies, we conducted quantitative image analysis in order to evaluate the in vivo pharmacokinetic profiles of [^11C]MX in tumor tissues. We defined the tumor tissues as the region of interest (ROI) through coregistration of microPET images with MRI images. The co-registered images were used for quantitative image analysis to determine [^11C]MX uptake and retention associated with tumor tissues. The radioactivity concentration in the tumor regions is expressed in terms of standard uptake volume (SUV) [(μCi/cc)/(uCi/g)] as a function of time.
Because TMZ, like dacarbazine, has been used in the treatment patients with metastatic malignant melanoma, we first conducted microPET studies in human (WM164) melanoma xenograft tumor model. In each experiment, two mice bearing melanoma xenografts were used, one treated with TMZ (80 mg/kg) to induce DNA damage and the other used as negative control. Prior to microPET scans, the mice were placed in a 7T MRI scanner and T2-weighted MRI images were acquired following the above-mentioned protocol. […]

With `CON` [MX, methoxyamine], the “concentration of tumor-associated radioactivity after blocking with unlabelled MX” value in the series with AP sites [1] is recorded as “significantly decreased”. For the same molecule, in the series with AP sites [2], the “ARP detected AP sites on co-treatment with TMZ” value was “reduced the ARP detected AP sites”.
With `[11CH3]ON` [[^11C]MX, (^11C)methoxyamine], the “retention of [^11C]MX in tumor regions” value in the series on AP sites [3] is listed as “higher in TMZ-treated tumor regions than in non-treated tumor regions”. For the same molecule, the “radioactivity concentration in tumor, TMZ-treated vs non-treated mice” value in the series with AP sites [4] (TMZ 80 mg/kg, 10 min post injection of [^11C]MX (ca. 2 mCi/kg i.v.)) was 1.6 fold. In the series with AP sites [4] (TMZ 80 mg/kg, 60 min scan), the “tumor uptake of [^11C]MX in TMZ-treated vs non-TMZ treated mice” value was “increased uptake”. In addition, the “entry of [^11C]MX into tumor tissue” value in the series on AP sites [4] (i.v. ca. 2 mCi/kg, microPET) is on record as “readily entered the tumor tissue at early time points”.
